Test results from patent US20070099867A1, “Pharmaceutical agent containing hyaluronan as an active ingredient” (GLYCOSCIENCE LABORATORIES, INC., priority 2005, published 2007).

Experiments:
[1] = system: K562 (human erythroleukemia cell); assay: Cell viability by Rhodamine 123 staining after heat treatment; format: cell-based; settings: K562, 20 minutes at 43° C. then 60 minutes at 37° C., HA4 100 ng/ml
Description: In this example, effect of the inventive pharmaceutical agent on cell viability was measured using Rhodamine 123. […] Accordingly, the degree of the staining with Rhodamine 123 serves as an index of the mitochondrial activity, thus the index of the cellular activity (see, non-patent reference 2).
In this example, a K562 (referred to as human erythroleukemia cell or human erythroblastoid leukemia cell) was used. The K562 was purchased from RIKEN, Japan.
In this example relating to preparation of test substance, HA4 was prepared at 100 ng/ml. Specifically, HA4 was prepared by the method of Tawada et al. (Tawada A, Masa T, Oonuki Y, Watanabe A, Matsuzaki Y, Asari A. Large-scale preparation, purification and characterization of hyaluronan oligosaccharides from 4-mers to 52-mers. Glycobiology, 2002; 12(7): 421-6) and the concentration was adjusted using a physiological saline.
First, the K562 was incubated under the condition described below. The culture medium for the K562 was an RPMI-1640 medium. In this example, the K562 was incubated in Groups 1 to 3 shown below. Each group was cultured under the condition described below. […]
The K562 after washing was inoculated at 1×10^4 cells/ml in a 96-well plate and a photograph was taken using a fluorescent microscope (Nikon). The image was sent to an Adobe Photoshop (Adobe Systems) where the fluorescent intensity of a cell was measured.

K562 [2] = assay: DNA chip expression analysis of cytokine-associated and chemokine-associated genes (Example 4); format: cell-based, human; settings: K562, 42° C. 20 minutes then 37° C. 30 minutes, HA4 10 ng/ml
Description: In this example, the cytokine-associated gene and chemokine-associated gene expression inhibition of a pharmaceutical agent according to the invention was assessed using a DNA chip capable of monitoring a gene expression promotion/inhibition.
Experimental method: First, the K562 was incubated in Groups 1 and 2 in the RPMI medium described above. The both groups were incubated at 42° C. for 20 minutes followed by 37° C. for 30 minutes. The medium of Group 2 was supplemented with HA4 (10 ng/ml).
After the incubation, the medium was removed by centrifugation at 1000 rpm. The obtained cells were stored in a deep freezer at −60° C. From the cells thus stored, RNA was extracted according to a standard method. The extracted RNA was subjected to the DNA chip to analyze the gene expression. The DNA chip gene expression analysis was subtracted to DNA CHIP Research Inc. Specifically, the trade name: AceGene Human Oligo Chip 30K 1 Chip Version manufactured by DNA CHIP Research Inc. was employed.

[3] = system: experimental autoimmune encephalomyelitis (EAE) multiple sclerosis model animals; assay: Experimental autoimmune encephalomyelitis (EAE) multiple sclerosis model, EAE neural symptom evaluation; format: in vivo, Lewis rats; settings: for EAE clinical score at the EAE climax: Day 13 after antigen inoculation, saline 2.2±0.41; for diseased period: saline 6.5±0.55 days
rat spinal injury model = assay: Rat spinal injury model, immunostaining of spinal tissue with anti-Hsp72 and anti-synaptophysin antibody; format: in vivo, Wistar rat; settings: Group 3: continuous intrathecal HA4 6 μg/day, 7 days; compared with Sham-operation (Group 1) and saline (Group 2)
Description: In this example, a rat spinal injury model was treated continuously with a physiological saline (saline group) or a physiological saline containing HA4 (HA4 group) followed by sampling the spinal tissue, which was then immunostained with an anti-Hsp72 antibody and/or an anti-synaptophysin antibody. Also in this example, a rat which had been subjected to a Sham-operation was handled as an intact control (Sham-operation group).
The rat spinal injury model was prepared by subjecting a Wistar rat (11-week old when receiving, 12-week old when using) to the procedure described below. First, a cervical to lumbar region of a test rat was clipped using an electric clipper under an anesthesia with pentobarbital and then the clipped region was cleaned with a 70% alcohol and ISOGIN. Then, the dorsal skin was excised to expose the 5th to 10th thoracic vertebrae and then the 6th thoracic vertebra was subjected to a semi-laminectomy. Then a dura was incised slightly and then under an anesthesia with xylocaine, the tip (fabricated to be 0.3 mm) of a microforceps was introduced over the width of the spinal posterior funiculus (about 1.5 mm) until the tip of the microforceps was brought into contact with the abdominal side vertebral body, and the microforceps were moved for 10 seconds to effect a debridement of the spinal cord (hereinafter referred to as a primary injury site). […]

[4] = system: U937 cell (human monocyte line); assay: IL-6 production by LPS-stimulated U937 cells, ELISA; format: cell-based; settings: U937, LPS 100 ng/ml, HA4 100 ng/ml, 24 hours
Description: (§1) An U937 cell was disseminated in a 2 ml aliquot in a 6-well microplate at 5×10^5 cell/ml, supplemented with an LPS at a final concentration of 100 or 1000 ng/ml, and then incubated for 24 hours with 5% CO2 at 37° C. in the presence or absence of HA4 (100 ng/ml). The culture supernatant was centrifuged at 3000 rpm for 5 minutes to obtain a test substance. A 1 ml aliquot of the recovered supernatant was subjected to Human Cytokine Antibody array (Raybio) using an ELISA (ENDOGEN) to detect the production of various cytokines.
(§2) More specifically, the following procedure was employed to measure the production of the cytokines by the cytokine array and the ELISA.
To a microplate, 50 μl of a biotinylated antibody solution and 50 μl of the culture supernatant were added, and allowed to stand at room temperature for 2 hours. After washing with a washing buffer three times, 100 μl of a streptoavidin-HRP solution was added, allowed to stand at room temperature for 30 minutes, and washed with the washing buffer three times. A TMB was added, allowed to stand for at room temperature 30 minutes, and then a quencher was added to stop the reaction and the absorbance at 450 nm was measured (reference: 562 nm). The IL-6 concentration (pg/ml) was calculated based on the standard solutions measured in parallel.

[5] = system: cerebrospinal tissue of multiple sclerosis model (EAE); assay: DNA array analysis of cerebrospinal tissue of the EAE model; format: in vivo, Lewis rats; settings: EAE rats
K562 [6] = assay: DNA chip gene expression analysis of cell viability genes (Example 3); format: cell-based, human; settings: K562, 42° C. 20 minutes then 37° C. 30 minutes, HA4 10 ng/ml
Description: In this example, the cell viability enhancement of a pharmaceutical agent according to the invention was assessed using a DNA chip capable of monitoring a gene expression promotion/inhibition.
First, the K562 was incubated in Groups 1 and 2 in the […] described above. The both groups were incubated at 42° C. for 20 minutes followed by 37° C. for 30 minutes. The medium of Group 2 was supplemented with HA4 (10 ng/ml).
After the incubation, the medium was removed by centrifugation at 1000 rpm. The obtained cells were stored in a deep freezer at −60° C. From the cells thus stored, RNA was extracted according to a standard method. The extracted RNA was subjected to the DNA chip to analyze gene expressions. The DNA chip gene expression analysis was subtracted to DNA CHIP Research Inc. Specifically, the trade name: AceGene Human Oligo Chip 30K 1 Chip Version manufactured by DNA CHIP Research Inc. was employed.

[7] = system: U937 cell (human monocyte line); assay: Cytokine production by LPS-stimulated U937 cells, Human Cytokine Antibody array; format: cell-based; settings: U937, LPS 100 ng/ml, HA4 100 ng/ml, 24 hours
Description: as §1, §2
A 2 ml aliquot of a blocking buffer was added to a membrane blotted with an antibody, which was then shaken for 30 minutes. The blocking buffer was removed, and a 1 ml aliquot of the culture supernatant was added and shaken at room temperature for 2 hours, washed 5 times, and then admixed with a primary antibody solution. After agitating at room temperature for 1.5 hours followed by washing 5 times, a secondary antibody solution was added and agitated overnight at 4° C. After washing 5 times, a chemiluminescence was allowed to develop and photographed by a Polaroid. The photograph was scanned to obtain its digital data which were subjected to an Image J to measure the luminescent intensity. The ratio based on the luminescent intensity of an internal standard placed in 6 positions in the membrane was calculated. In addition, a relative level (%) based on the expression level in a non-treatment group (NT) being 100 was calculated.

[8] = intraspinal single administration after onset of disease, 60 μg
[9] = intrathecal continuous 6 μg/day from antigen inoculation, Day 14, pooled cerebrospinal tissue

CC(=O)N[C@H]1[C@H](O[C@H]2[C@H](O)[C@@H](O)[C@H](O[C@H]3[C@H](O)[C@@H](CO)OC(O)[C@@H]3NC(C)=O)O[C@@H]2C(=O)O)O[C@H](CO)[C@@H](O)[C@@H]1O[C@@H]1O[C@H](C(=O)O)[C@@H](O)[C@H](O)[C@H]1O (some centres unmarked) [HA4, tetrasaccharide hyaluronan]
Rhodamine 123 staining performance (fluorescent intensity, mitochondrial activity) [1]: inhibited such a reduction | HA4(+)/HA4(−) ratio, CCL28 gene expression (K562 [2]): 0.32 | HA4(+)/HA4(−) ratio, IFN-γ gene expression (K562 [2]): 0.11 | HA4(+)/HA4(−) ratio, IFN-ω1 gene expression (K562 [2]): 0.5 | HA4(+)/HA4(−) ratio, IL-1β gene expression (K562 [2]): 0.36 | HA4(+)/HA4(−) ratio, IL-5 gene expression (K562 [2]): 0.28 | HA4(+)/HA4(−) ratio, IL-17b gene expression (K562 [2]): 0.31 | HA4(+)/HA4(−) ratio, IL-18RAP gene expression (K562 [2]): 0.32 | HA4(+)/HA4(−) ratio, Mig(CXCL9) gene expression (K562 [2]): 0.11 | EAE clinical score at the EAE climax ([3]; intraspinal continuous administration after onset of disease, 6 μg/day, 11 days (therapeutic)): 1.5±1.0 | EAE clinical score at the EAE climax ([3]; intraspinal continuous administration immediately after inoculation, 6 μg/day, 22 days (prophylactic), mean ± SD): 0.2±0.41 | EAE clinical score at the EAE climax [3, 8]: 1.8±0.5 | diseased period ([3]; intraspinal continuous administration after onset of disease, 6 μg/day, 11 days): 4.3 ± 1.5 days | cases developing the disease ([3]; intraspinal continuous administration immediately after inoculation, 6 μg/day, 22 days): ⅙ | diseased period [3, 8]: 5.0 ± 1.5 days | Hsp72 immunostaining at primary and secondary injury sites (rat spinal injury model): a further intense staining | synaptophysin immunostaining at primary and secondary injury sites (rat spinal injury model): an expression close to that observed in Group 1 | production of IL-6 (ELISA) [4]: reduction | IL-6 mRNA expression in cerebrospinal tissue ([5]; HA4 administered intrathecally after antigen inoculation, DNA array): increased | Expression level ratio (HA/physiological saline), Decoy TRAIL receptor without death domain [5, 9]: 2.0 | Expression level ratio (HA/physiological saline), Fibroblast growth factor receptor substrate 2 [5, 9]: 2.3 | Expression level ratio (HA/physiological saline), Transthyretin [5, 9]: 0.38 | HAA+/− ratio, Caspase 2 gene expression (K562 [6]; apoptosis-related): 0.27 | HAA+/− ratio, Granzyme H gene expression (K562 [6]; apoptosis-related): 0.38 | HAA+/− ratio, STK17b (DARK2) gene expression (K562 [6]; apoptosis-related): 0.09 | HAA+/− ratio, pawr (Par-4) gene expression (K562 [6]; apoptosis-related): 0.45 | HAA+/− ratio, dnaj (hsp40) homolog gene expression (K562 [6]; heat shock protein-related): 2.62 | HAA+/− ratio, DNAJ2 gene expression (K562 [6]; transcription control-related): 0.34 | HAA+/− ratio, TAF9L gene expression (K562 [6]; transcription control-related): 0.43 | production of IL-1α (cytokine array) [7]: reduction | production of IL-1β (cytokine array) [7]: reduction | production of IL-6 (cytokine array) [7]: reduction | production of TGF-β (cytokine array) [7]: reduction | production of TNF-α (cytokine array) [7]: reduction | production of TNF-β (cytokine array) [7]: reduction
